From ChEMBL document CHEMBL4393714, “Multi-targeting protein-protein interaction inhibitors: Evolution of macrocyclic ligands with embedded carbohydrates (MECs) to improve selectivity” (Eur J Med Chem, 2019)
pIC50, pKi: −log10 of the molar value.

Columns and labels:
[1] = biological target: Sodium-dependent dopamine transporter (Homo sapiens) (UniProt Q01959); experiment: Displacement of [3H] BTCP from human recombinant dopamine […] at 10 uM measured after 120 mins by scintillation counter method relative to control
Rattus norvegicus [2] = organism: Rattus norvegicus; experiment: Displacement of [3H] TBPS from rat GABA gated chloride channel at 10 uM measured after 120 mins by scintillation counter method relative to control
[3] = biological target: Small conductance calcium-activated potassium channel (Rattus norvegicus) (UniProt P70604+P70606+P70605); experiment: Displacement of [125I]apamin from rat brain SKCa at 10 uM measured after 60 mins by scintillation counter method relative to control
Rattus norvegicus [4] = organism: Rattus norvegicus; experiment: Displacement of [125I]alpha dendrotoxin from rat potassium channel at 10 uM measured after 60 mins by scintillation counter method relative to control
[5] = biological target: Vasoactive intestinal polypeptide receptor 1 (Homo sapiens) (UniProt P32241); experiment: Displacement of [125I] VIP from human recombinant VPAC1 receptor at 10 uM measured after 60 mins by scintillation counter method relative to control
[6] = biological target: Somatostatin receptor type 1 (Homo sapiens) (UniProt P30872); experiment: Displacement of [125I] tyr11-somatostatin-14 from human recombinant somatostatin receptor type1 at 10 uM measured after 180 mins by scintillation counter method relative to control
[7] = biological target: 5-hydroxytryptamine receptor 1B (Homo sapiens) (UniProt P28222); experiment: Displacement of [3H] GR125743 from human recombinant 5-HT1B receptor at 10 uM measured after 60 mins by scintillation counter method relative to control
[8] = biological target: Kappa-type opioid receptor (Homo sapiens) (UniProt P41145); experiment: Displacement of [3H] U69593 from human kappa opioid receptor at 10 uM measured after 60 mins by scintillation counter method relative to control
[9] = biological target: Delta-type opioid receptor (Homo sapiens) (UniProt P41143); experiment: Displacement of [3H] DADLE from human delta opioid receptor at 10 uM measured after 60 mins by scintillation counter method relative to control
[10] = biological target: Neuropeptide Y receptor type 2 (Homo sapiens) (UniProt P49146); experiment: Displacement of [125I] peptide YY from human neuropeptide Y2 receptor at 10 uM measured after 60 mins by scintillation counter method relative to control
[11] = biological target: Neuropeptide Y receptor type 1 (Homo sapiens) (UniProt P25929); experiment: Displacement of [125I] peptide YY from human neuropeptide Y1 receptor at 10 uM measured after 120 mins by scintillation counter method relative to control
[12] = biological target: Muscarinic acetylcholine receptor M2 (Homo sapiens) (UniProt P08172); experiment: Displacement of [3H]AF-DX 384 from human recombinant muscarinic 2 receptor at 10 uM measured after 60 mins by scintillation counter method relative to control
[13] = biological target: Melatonin receptor type 1A (Homo sapiens) (UniProt P48039); experiment: Displacement of [125I]2-iodomelatonin from human recombinant MT 1 receptor at 10 uM measured after 60 mins by scintillation counter method relative to control
[14] = biological target: Histamine H2 receptor (Homo sapiens) (UniProt P25021); experiment: Displacement of [125I]APT from human recombinant H2 receptor at 10 uM measured after 120 mins by scintillation counter method relative to control
[15] = biological target: Histamine H1 receptor (Homo sapiens) (UniProt P35367); experiment: Displacement of [3H]pyrilamine from human recombinant H1 receptor at 10 uM measured after 60 mins by scintillation counter method relative to control
[16] = biological target: B2 bradykinin receptor (Homo sapiens) (UniProt P30411); experiment: Displacement of [3H]bradykinin from human recombinant B2 receptor at 10 uM measured after 60 mins by scintillation counter method relative to control
[17] = biological target: Beta-1 adrenergic receptor (Homo sapiens) (UniProt P08588); experiment: Displacement of [3H] (-)CGP 12177 from human recombinant beta1 adreno receptor at 10 uM measured after 60 mins by scintillation counter method relative to control
[18] = biological target: Adrenergic receptor alpha-1 (Rattus norvegicus) (UniProt P15823+P23944+P43140); experiment: Displacement of [3H] prazosin from rat alpha1 adreno receptor at 10 uM measured after 60 mins by scintillation counter method relative to control; assay type: protein assay
[19] = biological target: Adenosine receptor A2a (Homo sapiens) (UniProt P29274); experiment: Displacement of [3H]CGS 21680 from human recombinant A2A receptor at 10 uM measured after 120 mins by scintillation counter method relative to control
Substance-K receptor = biological target: T1, Substance-K receptor (Homo sapiens, UniProt P21452); experiment: Displacement of [125I]NKA from human recombinant NK2 receptor measured after 60 mins by scintillation counter method
T1 sequence (P21452 whole entry): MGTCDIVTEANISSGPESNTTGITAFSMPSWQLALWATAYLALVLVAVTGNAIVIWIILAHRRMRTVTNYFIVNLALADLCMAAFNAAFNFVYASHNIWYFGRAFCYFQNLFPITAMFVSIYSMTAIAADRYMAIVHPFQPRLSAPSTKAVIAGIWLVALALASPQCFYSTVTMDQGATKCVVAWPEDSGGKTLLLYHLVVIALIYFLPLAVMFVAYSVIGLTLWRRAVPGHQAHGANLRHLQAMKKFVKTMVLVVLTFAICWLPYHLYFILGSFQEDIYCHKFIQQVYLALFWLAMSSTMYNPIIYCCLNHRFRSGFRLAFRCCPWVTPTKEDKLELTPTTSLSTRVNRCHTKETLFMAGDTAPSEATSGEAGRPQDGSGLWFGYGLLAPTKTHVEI

[20] = biological target: T2, 5-hydroxytryptamine receptor 1A (Homo sapiens, UniProt P08908); experiment: Displacement of [3H]OH-DPAT from human recombinant 5-HT1A receptor measured after 60 mins by scintillation counter method
T2 sequence (P08908 whole entry): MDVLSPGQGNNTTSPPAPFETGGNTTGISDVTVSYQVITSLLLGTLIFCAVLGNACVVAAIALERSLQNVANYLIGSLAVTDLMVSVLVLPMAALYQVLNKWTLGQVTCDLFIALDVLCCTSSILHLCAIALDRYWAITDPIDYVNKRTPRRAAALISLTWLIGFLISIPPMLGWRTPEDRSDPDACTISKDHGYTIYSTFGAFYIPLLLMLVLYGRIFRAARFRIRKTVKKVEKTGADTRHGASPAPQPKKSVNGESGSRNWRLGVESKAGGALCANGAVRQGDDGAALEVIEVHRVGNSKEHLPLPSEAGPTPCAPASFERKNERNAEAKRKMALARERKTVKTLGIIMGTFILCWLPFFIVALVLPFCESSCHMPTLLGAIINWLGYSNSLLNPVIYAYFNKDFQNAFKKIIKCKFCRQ

[21] = biological target: 5-hydroxytryptamine receptor 2C (Homo sapiens, UniProt P28335); experiment: Displacement of [3H] mesulergine from human recombinant 5-HT2C receptor measured after 120 mins by scintillation counter method
[22] = biological target: Beta-2 adrenergic receptor (Homo sapiens) (UniProt P07550); experiment: Agonist activity at human beta 2 adreno receptor at 10 uM relative to control
Chain of Beta-2 adrenergic receptor (Homo sapiens) (P07550 whole entry, looked up): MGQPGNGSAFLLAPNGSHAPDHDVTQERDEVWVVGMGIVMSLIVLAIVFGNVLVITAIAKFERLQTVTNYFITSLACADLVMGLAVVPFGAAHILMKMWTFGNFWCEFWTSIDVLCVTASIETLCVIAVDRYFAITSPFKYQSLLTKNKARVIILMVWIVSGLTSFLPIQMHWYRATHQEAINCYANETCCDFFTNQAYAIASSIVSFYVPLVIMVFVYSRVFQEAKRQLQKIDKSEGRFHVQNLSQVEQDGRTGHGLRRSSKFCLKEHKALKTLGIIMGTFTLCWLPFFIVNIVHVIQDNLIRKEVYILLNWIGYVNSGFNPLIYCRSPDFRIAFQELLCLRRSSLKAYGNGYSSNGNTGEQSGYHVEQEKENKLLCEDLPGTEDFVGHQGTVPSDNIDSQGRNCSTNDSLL

Chain of 5-hydroxytryptamine receptor 2C (P28335 whole entry): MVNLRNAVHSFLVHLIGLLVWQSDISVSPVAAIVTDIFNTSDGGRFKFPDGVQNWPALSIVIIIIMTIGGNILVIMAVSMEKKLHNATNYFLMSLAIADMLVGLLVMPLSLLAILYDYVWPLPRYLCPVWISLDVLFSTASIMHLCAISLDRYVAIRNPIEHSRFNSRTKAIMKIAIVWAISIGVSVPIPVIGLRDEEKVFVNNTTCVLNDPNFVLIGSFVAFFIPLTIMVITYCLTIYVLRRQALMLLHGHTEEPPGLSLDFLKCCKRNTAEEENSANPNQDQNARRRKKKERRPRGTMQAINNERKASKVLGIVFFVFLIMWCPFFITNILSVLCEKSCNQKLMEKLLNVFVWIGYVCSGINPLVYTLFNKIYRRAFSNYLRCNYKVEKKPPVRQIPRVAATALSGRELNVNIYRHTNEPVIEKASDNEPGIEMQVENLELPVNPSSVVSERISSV
Chain of Histamine H1 receptor (Homo sapiens) (P35367 whole entry): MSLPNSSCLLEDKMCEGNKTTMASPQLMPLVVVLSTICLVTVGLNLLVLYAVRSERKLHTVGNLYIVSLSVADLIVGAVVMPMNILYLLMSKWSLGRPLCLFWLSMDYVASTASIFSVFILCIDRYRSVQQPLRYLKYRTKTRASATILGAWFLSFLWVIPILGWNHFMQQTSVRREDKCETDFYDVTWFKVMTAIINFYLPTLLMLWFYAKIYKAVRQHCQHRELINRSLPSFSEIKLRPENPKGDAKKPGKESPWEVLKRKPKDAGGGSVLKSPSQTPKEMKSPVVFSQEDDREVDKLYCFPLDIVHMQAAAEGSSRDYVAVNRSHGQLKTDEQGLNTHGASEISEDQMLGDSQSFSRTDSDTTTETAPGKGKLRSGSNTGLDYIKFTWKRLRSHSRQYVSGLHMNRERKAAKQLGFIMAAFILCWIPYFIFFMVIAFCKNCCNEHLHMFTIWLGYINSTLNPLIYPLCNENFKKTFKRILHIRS
Chain of Beta-1 adrenergic receptor (Homo sapiens) (P08588 whole entry, looked up): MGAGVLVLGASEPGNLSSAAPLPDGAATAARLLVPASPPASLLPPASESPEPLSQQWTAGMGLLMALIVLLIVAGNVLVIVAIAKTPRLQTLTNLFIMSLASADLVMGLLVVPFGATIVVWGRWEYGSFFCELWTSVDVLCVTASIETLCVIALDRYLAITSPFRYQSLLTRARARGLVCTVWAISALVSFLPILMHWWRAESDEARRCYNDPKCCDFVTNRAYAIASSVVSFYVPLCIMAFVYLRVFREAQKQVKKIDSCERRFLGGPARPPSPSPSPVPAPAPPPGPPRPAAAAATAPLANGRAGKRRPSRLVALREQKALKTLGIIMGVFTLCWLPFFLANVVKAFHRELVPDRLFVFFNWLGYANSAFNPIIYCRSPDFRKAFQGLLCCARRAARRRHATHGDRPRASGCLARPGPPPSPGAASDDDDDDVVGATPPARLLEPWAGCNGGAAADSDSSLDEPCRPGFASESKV
Chain of Somatostatin receptor type 1 (Homo sapiens) (P30872 whole entry): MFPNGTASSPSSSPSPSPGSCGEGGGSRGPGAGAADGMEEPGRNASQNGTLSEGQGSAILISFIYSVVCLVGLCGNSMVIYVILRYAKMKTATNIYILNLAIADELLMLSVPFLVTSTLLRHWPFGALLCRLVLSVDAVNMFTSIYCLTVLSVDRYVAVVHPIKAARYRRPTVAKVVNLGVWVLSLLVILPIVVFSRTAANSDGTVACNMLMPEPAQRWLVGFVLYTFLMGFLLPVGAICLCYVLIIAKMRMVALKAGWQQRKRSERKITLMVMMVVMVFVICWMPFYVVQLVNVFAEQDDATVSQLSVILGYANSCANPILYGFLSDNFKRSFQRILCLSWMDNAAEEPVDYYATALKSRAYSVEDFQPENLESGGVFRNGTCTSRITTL
Chain of Neuropeptide Y receptor type 2 (Homo sapiens) (P49146 whole entry): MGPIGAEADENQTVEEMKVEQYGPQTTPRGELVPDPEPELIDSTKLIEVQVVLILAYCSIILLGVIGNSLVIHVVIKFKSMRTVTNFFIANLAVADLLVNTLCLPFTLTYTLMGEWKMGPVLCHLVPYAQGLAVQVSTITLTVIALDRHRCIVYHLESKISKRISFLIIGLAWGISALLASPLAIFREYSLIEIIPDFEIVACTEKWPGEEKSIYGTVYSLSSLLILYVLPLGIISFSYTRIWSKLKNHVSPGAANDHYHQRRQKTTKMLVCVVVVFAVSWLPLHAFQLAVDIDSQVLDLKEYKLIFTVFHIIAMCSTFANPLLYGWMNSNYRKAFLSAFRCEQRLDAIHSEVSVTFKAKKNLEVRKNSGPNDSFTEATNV
Chain of Sodium-dependent dopamine transporter (Homo sapiens) (Q01959 whole entry): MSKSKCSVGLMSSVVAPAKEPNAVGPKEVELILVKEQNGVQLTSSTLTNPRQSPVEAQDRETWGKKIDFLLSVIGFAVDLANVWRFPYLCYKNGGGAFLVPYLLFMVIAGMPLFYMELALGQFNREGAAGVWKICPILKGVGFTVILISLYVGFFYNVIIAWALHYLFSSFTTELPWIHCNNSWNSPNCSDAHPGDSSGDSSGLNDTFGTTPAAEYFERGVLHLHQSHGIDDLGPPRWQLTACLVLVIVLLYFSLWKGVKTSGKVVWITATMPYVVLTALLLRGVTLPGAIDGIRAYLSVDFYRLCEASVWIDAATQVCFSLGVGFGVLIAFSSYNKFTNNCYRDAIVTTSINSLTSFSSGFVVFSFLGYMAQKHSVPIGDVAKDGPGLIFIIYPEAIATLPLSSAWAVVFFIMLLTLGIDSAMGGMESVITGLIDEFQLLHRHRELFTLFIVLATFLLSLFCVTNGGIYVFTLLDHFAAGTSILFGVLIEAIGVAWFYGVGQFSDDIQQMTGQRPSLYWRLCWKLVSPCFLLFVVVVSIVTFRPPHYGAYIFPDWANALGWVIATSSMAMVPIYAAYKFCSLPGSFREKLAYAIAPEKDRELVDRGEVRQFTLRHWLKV
Chain of 5-hydroxytryptamine receptor 1B (Homo sapiens) (P28222 whole entry): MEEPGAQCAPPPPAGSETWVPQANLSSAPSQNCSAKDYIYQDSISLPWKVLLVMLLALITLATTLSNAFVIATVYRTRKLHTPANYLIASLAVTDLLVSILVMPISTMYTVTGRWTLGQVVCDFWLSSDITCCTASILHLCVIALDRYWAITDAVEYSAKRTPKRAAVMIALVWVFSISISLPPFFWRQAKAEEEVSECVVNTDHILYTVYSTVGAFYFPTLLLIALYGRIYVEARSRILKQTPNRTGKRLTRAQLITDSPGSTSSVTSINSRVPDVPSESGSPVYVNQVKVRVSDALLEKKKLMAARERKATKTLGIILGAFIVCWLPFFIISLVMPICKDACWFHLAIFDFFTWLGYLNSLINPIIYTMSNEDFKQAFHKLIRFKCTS
Chain of Histamine H2 receptor (Homo sapiens) (P25021 whole entry): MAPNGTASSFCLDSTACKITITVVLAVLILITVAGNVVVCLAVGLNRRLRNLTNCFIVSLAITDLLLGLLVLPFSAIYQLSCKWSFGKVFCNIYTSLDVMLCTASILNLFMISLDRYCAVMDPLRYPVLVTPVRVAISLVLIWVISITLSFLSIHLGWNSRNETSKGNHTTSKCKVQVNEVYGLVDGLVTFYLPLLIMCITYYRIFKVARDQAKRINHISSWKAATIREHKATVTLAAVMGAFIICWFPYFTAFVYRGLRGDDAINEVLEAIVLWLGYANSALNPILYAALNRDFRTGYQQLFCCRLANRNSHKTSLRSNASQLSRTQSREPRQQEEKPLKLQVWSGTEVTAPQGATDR
Chain of Muscarinic acetylcholine receptor M2 (Homo sapiens) (P08172 whole entry): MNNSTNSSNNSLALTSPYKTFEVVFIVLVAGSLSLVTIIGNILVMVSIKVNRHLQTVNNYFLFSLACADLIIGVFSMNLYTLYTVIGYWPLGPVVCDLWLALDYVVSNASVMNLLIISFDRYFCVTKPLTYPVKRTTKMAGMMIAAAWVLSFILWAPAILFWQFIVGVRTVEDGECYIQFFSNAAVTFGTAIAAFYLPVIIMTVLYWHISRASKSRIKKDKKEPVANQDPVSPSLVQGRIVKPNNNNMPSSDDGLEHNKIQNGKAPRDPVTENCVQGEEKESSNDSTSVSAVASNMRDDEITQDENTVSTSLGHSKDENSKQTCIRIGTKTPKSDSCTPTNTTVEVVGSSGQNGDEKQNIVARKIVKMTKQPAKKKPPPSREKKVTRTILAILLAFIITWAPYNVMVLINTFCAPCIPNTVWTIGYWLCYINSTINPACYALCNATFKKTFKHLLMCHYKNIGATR
Chain of Neuropeptide Y receptor type 1 (Homo sapiens) (P25929 whole entry): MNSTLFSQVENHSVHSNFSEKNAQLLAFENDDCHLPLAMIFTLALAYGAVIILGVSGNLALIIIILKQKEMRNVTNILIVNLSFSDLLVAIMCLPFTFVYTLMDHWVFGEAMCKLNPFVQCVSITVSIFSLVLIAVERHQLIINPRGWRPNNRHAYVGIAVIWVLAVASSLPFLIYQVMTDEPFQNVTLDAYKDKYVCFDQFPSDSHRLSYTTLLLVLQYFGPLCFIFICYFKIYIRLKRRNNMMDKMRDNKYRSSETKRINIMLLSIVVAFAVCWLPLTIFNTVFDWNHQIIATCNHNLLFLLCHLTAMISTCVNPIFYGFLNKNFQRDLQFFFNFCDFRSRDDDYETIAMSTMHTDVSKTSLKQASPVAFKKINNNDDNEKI

Compound: CC(C)CCO[C@@H]1[C@H]2OC(C)(C)O[C@H]2[C@H]2Cn3cc(nn3)COCCCCCCN(CCc3ccc4ccccc4c3)CC[C@H]1O2
- inhibition [1]: 64.1%
- inhibition (Rattus norvegicus [2]): 62.4%
- inhibition [3]: 1.4%
- inhibition (Rattus norvegicus [4]): 13.4%
- Activity [5]: 14.8%
- inhibition [6]: 14%
- inhibition [7]: 19%
- inhibition [8]: 77.9%
- inhibition [9]: 83.4%
- inhibition [10]: 10.8%
- Activity [11]: 3.3%
- inhibition [12]: 36.2%
- inhibition [13]: 29.2%
- inhibition [14]: 27.4%
- inhibition [15]: 60.5%
- Activity [16]: 9.4%
- inhibition [17]: 10.6%
- inhibition [18]: 57.7%
- inhibition [19]: 14.6%
- pIC50 (Substance-K receptor): 6.59
- pKi (Substance-K receptor): 6.85
- pIC50 [20]: 6.31
- pKi [20]: 6.51
- pIC50 [21]: < 4.00
- pKi [21]: < 4.00
- inhibition [22]: 3.9%
